Counter-ions that a name gives are not always drawn. Like-named read-outs stand apart in the source and are kept apart here.
How the values were obtained:
[1] = tested on: platelet aggregation induced by thrombin; details: Thrombin (0.1 U/ml), washed platelets of female Sprague-Dawley rats after oral dose corresponding to clopidogrel 15.3 mg/kg
Description: (§1) The pharmacological activities for preventing platelet aggregation of the clopidogrel hydrogen sulfate obtained in Comparative Example 1, and the inventive clopidogrel 2-naphthalenesulfonate and clopidogrel 1,5-naphthalenedisulfonate monohydrate obtained in Examples 1 and 2, respectively, were tested using rat blood in accordance with the standard method (see Born G.V.R & Cross, J. Physiol. 168: 178-195, 1963; 0. Takahashi, Food & Chemical Toxicology 38: 203-218, 2000). The platelet aggregation inhibition test was performed ex vivo, and the inhibitory activities of the acid addition salts against platelets aggregation induced by adenosine-diphosphate (ADP), collagen and thrombin, respectively, were measured.
(§2) Twenty 11 to 12-weeks old female Sprague-Dawley rats (average weight: 270±25 g) were divided into four groups each consisting of five rats, and each group of rats was orally administered with 20.0 mg/kg of clopidogrel hydrogen sulfate (15.3 mg/kg as clopidogrel), 25.2 mg/kg of clopidogrel 2-naphthalenesulfonate, and 22.6 mg/kg of clopidogrel 1,5-naphthalenedisulfonate monohydrate dissolved in 1% DMSO based on a volume of 10 ml/kg body weight. For the control group of rats, only 1% DMSO solution was administered.
(§3) Blood samples were taken using a syringe pre-charged with 3.8% citric acid solution from the abdominal artery of the animals under anesthesia, and the blood samples were centrifuged at 4° C. and 1,000 rpm for 10 minutes to separate platelet-rich plasma (PRP). The separated plasma was further centrifuged four times at 4° C. and 1,000 rpm to obtain PRP for test. A portion of PRP was further centrifuged at 4° C. and 3,000 rpm for 10 minutes to prepare precipitated platelet, and the precipitated platelet was washed with a buffer (138 mM NaCl, 2.7 mM KCl, 12 mM NaHCO3, 0.36 mM NaH2PO4, 5.5 mM glucose, 1 mM EDTA: pH 6.5). Then, the platelet was suspended in a buffer (138 mM NaCl, 2.7 mM KCl, 12 mM NaHCO3, 0.36 mM NaH2PO4, 0.49 mM MgCl2, 0.25% gelatin, 5.5 mM glucose: pH 7.4) such that the optical density (OD) value at 260 nm corresponded to a number of platelet which is about 1×10^8.
(§4) To induce platelet aggregation, ADP standard solution was added to the above PRP to determine the concentration until the final concentration of the ADP became 5 μM. Further, a collagen standard solution (final concentration 5 μg/ml) and thrombin standard solution (final concentration 0.1 U/ml) was added to the above washing platelet solution to induce platelet aggregation. Each of the samples was stirred at 37° C. and 900 rpm to measure the amount of platelet aggregation using a aggregometer (Chrono-log Platelet Aggregometer). The degrees of platelet aggregation and inhibition were calculated using formulae 1 and 2, and the results are shown in Table 8. Degree of aggregation (%)=[(measured aggregation height)/(aggregation height when 100% was aggregated)]×100 <Formula 1> Degree of inhibition (%)=[(aggregation height of control group)−(aggregation height of drug administration group)]/(aggregation height of control group)×100 <Formula 2>

[2] = tested on: platelet aggregation induced by collagen; details: Collagen (5 μg/ml), washed platelets of female Sprague-Dawley rats after oral dose corresponding to clopidogrel 15.3 mg/kg
Description: as §1, §2, §3, §4

[3] = tested on: platelet aggregation induced by adenosine-diphosphate (ADP); details: ADP (5 μM), PRP of female Sprague-Dawley rats after oral dose corresponding to clopidogrel 15.3 mg/kg
Description: as §1, §2, §3, §4

SMILES	Aggregation ratio ([1]; Monohydrate) [%]	Inhibition ratio ([1]; Monohydrate) [%]	Aggregation ratio ([2]; Monohydrate) [%]	Inhibition ratio ([2]; Monohydrate) [%]	Aggregation ratio ([3]; Monohydrate) [%]	Inhibition ratio ([3]; Monohydrate) [%]	Aggregation ratio [1] [%]	Inhibition ratio [1] [%]	Aggregation ratio [2] [%]	Inhibition ratio [2] [%]	Aggregation ratio [3] [%]	Inhibition ratio [3] [%]
COC(=O)[C@H](c1ccccc1Cl)N1CCc2sccc2C1 [1,5-Naphthalenedisulfonate monohydrate, Clopidogrel 1,5-naphthalenedisulfonate Monohydrate]	23.61 ± 1.43	71.5	3.75 ± 0.40	95.3	4.12 ± 0.14	88.5	–	–	–	–	–	–
COC(=O)[C@H](c1ccccc1Cl)N1CCc2sccc2C1 [2-Naphthalenesulfonate, Clopidogrel 2-naphthalenesulfonate]	–	–	–	–	–	–	15.00 ± 1.71	81.9	1.88 ± 0.25	97.9	2.94 ± 0.21	91.8
COC(=O)[C@H](c1ccccc1Cl)N1CCc2sccc2C1 [Hydrogen sulfate, Clopidogrel Hydrogen Sulfate, reference compound]	–	–	–	–	–	–	27.22 ± 1.52	67.1	12.19 ± 1.70	84.8	5.00 ± 0.60	86.1
